What was measured:
[1] = biological target: T1, rhGAA (Homo sapiens, UniProt P10253); experiment: Effect of compounds on rhGAA stability at neutral pH (residual α-glucosidase activity); format: biochemical
T1 construct: purchased Genzyme Co, Cambridge, Mass., USA
Protocol: The standard activity assay of rhGAA was performed in 200 μl by using 5 μg of enzyme at 37° C. in 100 mM sodium acetate pH 4.0 and 20 mM 4NP-Glc. The reaction was started by adding the enzyme; after suitable incubation time (1-2 min) the reaction was blocked by adding 800 μL of 1 M sodium carbonate pH 10.2. Absorbance was measured at 420 nm at room temperature, the extinction coefficient to calculate enzymatic units was 17.2 mM^−1 cm^−1. One enzymatic unit is defined as the amount of enzyme catalyzing the conversion of 1 μmol substrate into product in 1 min, under the indicated conditions.
The effect of different pHs on the rhGAA stability was measured by preparing reaction mixtures containing 0.75 mg mL^−1 of enzyme in the presence of 50 mM citrate/phosphate (pH 3.0-7.0) at a certain pH. After incubations at 37° C., aliquots were withdrawn at the times indicated and the residual α-glucosidase activity was measured with the standard assay. To test the effect on the pH stability of rhGAA of chemical chaperons and of the other molecules, experiments were performed as described above by adding to the reaction mixtures the amounts of the different compounds indicated in the text.

[2] = biological target: T2, rhGAA in PD fibroblasts (Homo sapiens, UniProt P10253); experiment: Correction of GAA activity by rhGAA in PD fibroblasts with chaperone (synergy); format: cell-based
T2 construct: purchased Genzyme Co, Cambridge, Mass., USA
Protocol: To study the rhGAA uptake and correction of GAA activity in PD fibroblasts, the cells were incubated with […] rhGAA for 24 hours, in the absence or in the presence of 10 mM NAC. Untreated cells or were used for comparison. After the incubation the cells were harvested by trypsinization and disrupted by 5 cycles of freezing and thawing.
GAA activity was assayed by using the fluorogenic substrate 4-methylumbelliferyl-alpha-D-glucopyranoside (Sigma-Aldrich) according to a published procedure [Porto et al, 2009]. Briefly, 25 micrograms of protein were incubated with the fluorogenic substrate (2 mM) in 0.2 M acetate buffer, pH 4.0, for 60 minutes in incubation mixtures of 100 μl. The reaction was stopped by adding 700 μl of glycine-carbonate buffer, pH 10.7. Fluorescence was read at 365 nm (excitation) and 450 nm (emission) on a Turner Biosystems Modulus fluorometer. Protein concentration in cell homogenates was measured by the Bradford assay (Biorad, Hercules, Calif.).
To study GAA immunoreactive material, fibroblast extracts were subjected to western blot analysis. The cells were harvested, washed in phosphate-buffered saline, resuspended in water, and disrupted by five cycles of freeze-thawing. Equal amounts (20 μg protein) of fibroblast extracts were subjected to sodium dodecyl sulfate polyacrylamide gel electrophoresis and proteins were transferred to PVD membrane (Millipore, Billerica, Mass.). An anti-human GAA antiserum was used as primary antibody to detect GAA polypeptides; to detect β-actin, a monoclonal mouse antibody was used Immunoreactive proteins were detected by chemiluminescence (ECL, Amersham, Freiburg, Germany)
To study the distribution of AlexaFluor546 labeleld GAA, PD fibroblasts grown on coverslips were fixed using methanol, permeabilized using 0.1% saponin and locked with 0.01% saponin, 1% fetal bovine serum diluted in phosphate-buffered saline for 1 hour. The cells were incubated with the primary antibodies, with secondary antibodies in blocking solution and then mounted with vectashield mounting medium (Vector Laboratories, Burlingame, Calif.). Samples were examined with a Zeiss LSM 5 10 laser scanning confocal microscope. Authors used Argon/2 (458, 477, 488, and 514 nanometers) and HeNe1 (543 nanometers) excitation lasers, which were switched-on separately to reduce crosstalk of the two fluorochromes. The green and the red emissions were separated by a dichroic splitter (FT 560) and filtered (515-540-nm bandpass filter for green and >610-nm long pass filter for red emission). A threshold was applied to the images to exclude ˜99% of the signal found in control images.

[3] = biological target: T3, GAA activity in tissues (Homo sapiens, UniProt P10253); experiment: Synergy between NAC and rhGAA in vivo in mouse model of PD; design: species or system mice; conditions: oral NAC 5 days, rhGAA 100 mg/kg on day 3, liver, heart, diaphragm, gastrocnemium, not statistically significant
T3 construct: purchased Genzyme Co, Cambridge, Mass., USA
Protocol: Animal studies were performed according to the European Union Directive 86/609, regarding the protection of animals used for experimental purposes. The animals, mice model of PD [Raben et al, 1993], were allowed to drink 138 mM NAC in water ad libitum (4.2 g/kg/day) for 5 days. On day 3 they received a single rhGAA injection (100 mg/kg) in the tail vein. On day 5 the animals were sacrificed and tissues were analyzed for GAA activity.

[4] = biological target: T4, rh-alpha-Gal A (Homo sapiens, UniProt P06280); experiment: Effect of NAC on rh-alpha-Gal A at neutral pH; format: biochemical; conditions: 10 mM, 50 mM sodium citrate/phosphate buffer pH 7.0, after 48 h
T4 construct: purchased Genzyme Co, Cambridge, Mass., USA
T4 sequence (P06280 32-429): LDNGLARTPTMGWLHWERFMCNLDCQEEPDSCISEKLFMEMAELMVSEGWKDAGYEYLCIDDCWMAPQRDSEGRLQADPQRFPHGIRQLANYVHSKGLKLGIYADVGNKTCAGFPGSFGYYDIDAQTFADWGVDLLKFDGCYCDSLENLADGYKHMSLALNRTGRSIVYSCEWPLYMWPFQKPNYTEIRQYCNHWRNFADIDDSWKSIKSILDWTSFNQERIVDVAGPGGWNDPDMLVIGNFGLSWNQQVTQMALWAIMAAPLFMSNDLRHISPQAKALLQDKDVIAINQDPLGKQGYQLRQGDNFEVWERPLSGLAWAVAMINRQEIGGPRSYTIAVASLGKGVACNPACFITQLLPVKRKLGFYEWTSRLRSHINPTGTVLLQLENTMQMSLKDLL
Protocol: An important concern on the use of pharmacological chaperones is the specificity of their effects and the possibility of interactions with other enzymes. […] The latter family includes lysosomal alpha-galactosidase A (alpha-Gal A), that is defective in another LSD, Fabry disease [Germain, 2010]. Two preparations of recombinant human alpha-Gal A (rh-alpha-Gal A) have been approved for ERT in Fabry disease patients. To test if NAC is active on this enzyme, authors incubated rh-alpha-Gal A and 10 mM NAC in 50 mM sodium citrate/phosphate buffer, pH 7.0. NAC had no effect on rh-alpha-Gal A after 48 h (FIG. 10A).

## CC(=O)N[C@@H](CS)C(=O)O [NAC, N-acetyl cysteine]
[1]; 0, 0.1, 1, 10 mM, neutral pH
  dose dependence of stabilizing effect on rhGAA: dose dependent
[1]; 10 mM, neutral pH 7.0, 37° C., after 48 h of incubation
  rhGAA activity detectable after incubation: about 90%
[1]; pH 7.0, 37° C., 0.1-10 mM, up to 48 hrs
  stabilization of rhGAA at neutral pH: rescued
[2]; PD fibroblasts
  amount of fluorochrome-labelled GAA compared to fluorescent GAA alone: increase
  correction of the enzymatic defect on co-administration with rhGAA: complete correction
[2]; PD fibroblasts, western blot band density
  processing of rhGAA into the mature active isoforms: improved
[2]; PD fibroblasts, with rhGAA
  GAA-related polypeptides on western blot compared to rhGAA alone: increased amounts
[2]; fibroblasts from patient 3, 0.02-10 mM
  improvement of GAA activity on co-administration with rhGAA, dose dependence: dose-dependent effect
[3]
  correction of GAA enzyme activity in tissues, combination with rhGAA vs rhGAA alone: superior to rhGAA alone
[4]
  effect on rh-alpha-Gal A: no effect

— patent US20150147309A1, “ALLOSTERIC CHAPERONES AND USES THEREOF” (Fondazione Telethon, priority 2012, published 2015)
